The values below come from ChEMBL document CHEMBL4842384 (J Med Chem, 2021).

SMILES strings stand for the structures. In brackets after ≈: the same amount, converted by molar mass. A value given as a limit tells only on which side of the number the result lay.

Data set [1] can be described thus: Cmax in C57BL6 mouse at 30 mg/kg, po. In kind it is ADME, organism-based. Further details: route oral, dose 30 mg/kg. The following applies: in vivo.
Data set [2] in a line: Aqueous solubility of compound at pH 6.5. In kind it is physicochemical. The following applies: buffer.
The nature of data set [3]: AUC in C57BL6 mouse at 30 mg/kg, po. Format: ADME, organism-based. Details: dose 30 mg/kg. Conditions: in vivo.
A short description of data set [4]: Permeability of compound at pH 7.4 by PAMPA assay. Format: ADME. The following applies: for Papp: read-out: permeability. For orientation: PAMPA measures passive passage across an artificial lipid membrane.
The nature of data set [5]: Oral bioavailability in C57BL6 mouse at 30 mg/kg. The following applies: in vivo. In kind it is ADME, organism-based.
Data set [6] can be described thus: Aqueous solubility of compound at pH 7.4. The following applies: buffer. Format: physicochemical.
A short description of data set [7]: Aqueous solubility of compound at pH 1. In kind it is physicochemical. Conditions: buffer.
Data set [8] in a line: Permeability of compound at pH 5.5 by PAMPA assay. The following applies: for Papp: read-out: permeability. In kind it is ADME.

With `Cc1ccc(C2=C(c3nnn[nH]3)C(=O)N[C@@](c3ccc(OCCCC(F)(F)F)cc3)(C(F)(F)F)C2)cc1` [BMS-963272], in data set [1], the concentration peaked (Cmax) at 11 µM. Also, the solubility – broadly, the concentration that dissolves in the medium under given conditions – in data set [2] was 1180 µg/mL (≈ 2240 µM); in data set [6] it was over 2450 µg/mL; in data set [7], 11 µg/mL (≈ 20.9 µM). In addition, the AUC (usually the area under the concentration-time curve, a measure of exposure) in data set [3] worked out at 93 µM·h. Further, the results for the Papp in data set [4] and in data set [8] were 17.9 ×10⁻⁶ cm/s and 47.9 ×10⁻⁶ cm/s, respectively. Besides, the bioavailability (as a rule, dose-corrected exposure relative to a reference, in per cent) in data set [5] worked out at 50%.

`Cc1ccc(C2=C(c3nnn[nH]3)C(=O)N[C@@](c3ccc(OCCCCCC(F)(F)F)cc3)(C(F)(F)F)C2)cc1`: the Cmax (in general, the highest concentration seen after dosing) in data set [1] is 4.3 µM. Also, the solubility in data set [2] was 332 µg/mL (≈ 600 µM); in data set [6] it was 1130 µg/mL (≈ 2050 µM); in data set [7] it was 1 µg/mL (≈ 1.81 µM). For the same compound, in data set [3], the AUC was 22 µM·h. Also, the Papp in data set [4] stood at 34.1 ×10⁻⁶ cm/s; in data set [8], 46.6 ×10⁻⁶ cm/s. Moreover, the bioavailability in data set [5] came out at 88%.

The compound `COc1ccc(NC(=O)C2=C(c3ccc(C)cc3)C[C@](c3ccc(OCCCC(F)(F)F)cc3)(C(F)(F)F)NC2=O)cc1` yielded a peak concentration (Cmax) in data set [1] of 0.16 µM. Moreover, the solubility in data set [2] and in data set [7] was under 1 µg/mL throughout. Also, the AUC in data set [3] is 1.1 µM·h. For the same compound, the permeability result in data set [4] and in data set [8] was “Nd(Insoluble)” throughout. In data set [5], this compound registered a bioavailability of 15%.
